Patent US20260132132A1, “3A,4,5,6-TETRAHYDRO-1 H-PYRAZOLO[3,4-C]PYRIDIN-7(7AH)-ONE DERIVATIVES AS FACTOR XIIA INHIBITORS” (KALVISTA PHARMACEUTICALS LIMITED, priority 2022, published 2026)
pIC50: −log10 of the molar value.

Legend:
[1] = target: T1, Human Factor XIIa (hFXIIa) (Homo sapiens, UniProt P00748); assay: Determination of Human Factor XIIa (hFXIIa) inhibition, fluorogenic substrate IC50 assay; type: biochemical; conditions: fluorogenic substrate H-DPro-Phe-Arg-AFC at Km, 25° C., read-out: Human FXIIa IC50
T1 construct: purchased Enzyme Research Laboratories
T1 sequence (P00748 373-615 limits assumed): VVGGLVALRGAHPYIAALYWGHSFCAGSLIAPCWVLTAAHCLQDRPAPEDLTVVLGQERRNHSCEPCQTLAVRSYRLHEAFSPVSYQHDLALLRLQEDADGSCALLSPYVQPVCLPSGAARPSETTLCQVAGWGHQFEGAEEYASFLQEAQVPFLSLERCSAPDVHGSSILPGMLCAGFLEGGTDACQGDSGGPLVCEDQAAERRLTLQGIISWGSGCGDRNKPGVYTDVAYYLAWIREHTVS
T1 sequence (P00748 20-372 partner limits assumed): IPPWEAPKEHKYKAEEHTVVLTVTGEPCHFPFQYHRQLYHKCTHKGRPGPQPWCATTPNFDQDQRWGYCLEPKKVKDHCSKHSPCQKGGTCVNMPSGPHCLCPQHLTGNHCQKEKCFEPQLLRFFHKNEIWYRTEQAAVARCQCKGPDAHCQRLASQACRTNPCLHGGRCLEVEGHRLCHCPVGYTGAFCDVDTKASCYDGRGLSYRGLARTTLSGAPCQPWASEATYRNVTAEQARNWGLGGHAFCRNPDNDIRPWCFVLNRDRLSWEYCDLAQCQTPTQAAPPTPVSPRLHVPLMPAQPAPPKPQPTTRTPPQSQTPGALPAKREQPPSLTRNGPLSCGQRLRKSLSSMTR
Description: Determination of Human Factor XIIa (hFXIIa) inhibition
The Km for the cleavage of the substrate by hFXIIa was determined by standard transformation of the Michaelis-Menten equation, with subsequent inhibition assays performed at substrate Km concentration.

FXa = FXa (Homo sapiens, UniProt P00742); assay: Related protease inhibition: FXa, fluorogenic substrate; type: biochemical; conditions: fluorogenic substrate at Km, 25° C., H1-H3 = % activity at 40 μM; for activity at 40 µM: read-out: IC50 (human FXa) nM
Description: (§1) Human serine protease enzyme Plasma Kallikrein, KLK1, FXa, Plasmin, Thrombin and Trypsin were assayed for enzymatic activity using an appropriate fluorogenic substrate at Km concentration, FXIa at fixed substrate concentration of 100 μM and various concentrations of the test compound.

[2] = Pharmacokinetics following a single intravenous dose and a single oral dose in rats; type: in vivo; conditions: rat, male Sprague-Dawley rats, single iv dose (nominal 1 mg/kg) and single oral dose (nominal 5 mg/kg) in 10% DMSO/10% Cremophor EL/80% SWFI, plasma by LCMS, Phoenix WinNonlin; for bioavailability: read-out: F % (oral bioavailability); for half-life: route for T½ not stated
Description: Pharmacokinetic studies of the compounds in Table 10 were performed to assess the pharmacokinetics following a single intravenous dose and a single oral dose in male Sprague-Dawley rats. Two rats were given a single intravenous dose of 1 ml/kg of a nominal 1 mg/ml (1 mg/kg) composition of test compound in 10% DMSO/10% Cremophor EL/80% SWFI vehicle. Two rats were given a single oral dose of 5 mL/kg of a nominal 1 mg/ml (5 mg/kg) composition of test compound in 10% DMSO/10% Cremophor EL/80% SWFI vehicle.
Following intravenous dosing, blood samples were collected over a period of 12 h. Sample times were 2, 5, 15 and 30 min then 1, 2, 4, 6, and 12 h. Following oral dosing, blood samples were collected over a period of 24 h. Sample times were 5, 15 and 30 min then 1, 2, 4, 6, 8, 12 and 24 h.
Following collection, blood samples were centrifuged and the plasma fraction analysed for concentration of test compound by LCMS. Oral bioavailability and half-life calculations from these studies were obtained using Phoenix WinNonlin (v8.0) and are shown below: […]

Thrombin = Thrombin (Homo sapiens, UniProt P00734); assay: Related protease inhibition: Thrombin, fluorogenic substrate; type: biochemical; conditions: fluorogenic substrate at Km, 25° C., H1-H3 = % activity at 40 μM; for activity at 40 µM: read-out: IC50 (human thrombin) nM
Description: as §1

FXa, sequence (P00742 235-488 limits assumed): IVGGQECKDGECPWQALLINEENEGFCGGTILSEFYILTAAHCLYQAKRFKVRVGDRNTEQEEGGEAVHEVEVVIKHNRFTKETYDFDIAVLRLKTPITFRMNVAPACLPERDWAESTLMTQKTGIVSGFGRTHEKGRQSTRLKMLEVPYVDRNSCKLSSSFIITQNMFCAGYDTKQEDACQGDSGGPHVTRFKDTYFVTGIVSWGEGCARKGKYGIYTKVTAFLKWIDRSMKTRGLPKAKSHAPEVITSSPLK
FXa, sequence (P00742 41-179 partner limits assumed): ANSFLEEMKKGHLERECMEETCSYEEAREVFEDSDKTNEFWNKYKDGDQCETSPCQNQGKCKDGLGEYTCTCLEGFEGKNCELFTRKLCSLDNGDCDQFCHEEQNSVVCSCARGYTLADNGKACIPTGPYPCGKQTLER

Structure (SMILES) | pIC50 [1] | pIC50 (FXa) | bioavailability [2] | half-life [2] | activity at 40 µM (FXa) | activity at 40 µM (Thrombin) | pIC50 (Thrombin)
CN1CCc2ccc(N3CCc4c(C(=O)N[C@@H]5CCOC5)nn(-c5cccc(Cl)c5F)c4C3=O)cc2C1=O [Example 2039, (R)-1-(3-chloro-2-fluorophenyl)-6-(2-methyl-1-oxo-1,2,3,4-tetrahydroisoquinolin-7-yl)-7-oxo-N-(tetrahydrofuran-3-yl)-4,5,6,7-tetrahydro-1H-pyrazolo[3,4-c]pyridine-3-carboxamide] | 6.52 to 7.00 | < 4.40 | 27% | 45 min |  |  | 
CN1CCc2ccc(N3CCc4c(C(=O)NCC5CC5)nn(-c5cccc(Cl)c5)c4C3=O)cc2C1=O [Example 1149, 1-(3-chlorophenyl)-N-(cyclopropylmethyl)-6-(2-methyl-1-oxo-1,2,3,4-tetrahydroisoquinolin-7-yl)-7-oxo-4,5,6,7-tetrahydro-1H-pyrazolo[3,4-c]pyridine-3-carboxamide] | 6.00 to 6.52 | < 4.40 | 56% | 133 min |  |  | 
Cc1cc(CNC(=O)c2nn(-c3cccc(Cl)c3)c3c2CCN(c2ccc4c(c2)C(=O)N(CCO)CC4)C3=O)nn1C [Example 1222, 1-(3-chlorophenyl)-N-((1,5-dimethyl-1H-pyrazol-3-yl)methyl)-6-(2-(2-hydroxyethyl)-1-oxo-1,2,3,4-tetrahydroisoquinolin-7-yl)-7-oxo-4,5,6,7-tetrahydro-1H-pyrazolo[3,4-c]pyridine-3-carboxamide] | 7.00 to 8.00 |  | 5% | 35 min |  |  | 
Cc1cc(C)c(CNC(=O)c2nn(-c3cccc(Cl)c3)c3c2CCN(c2ccc4c(c2)CN(CCO)CC4)C3=O)cn1 [Example 1128, 1-(3-Chlorophenyl)-N-((4,6-dimethylpyridin-3-yl)methyl)-6-(2-(2-hydroxyethyl)-1,2,3,4-tetrahydroisoquinolin-7-yl)-7-oxo-4,5,6,7-tetrahydro-1H-pyrazolo[3,4-c]pyridine-3-carboxamide] | 7.00 to 8.00 | 4.40 to 5.00 | 27% | 273 min |  |  | 
CCNC(=O)c1nn(-c2cccc(Cl)c2)c2c1CCN(c1cccc(N3C4CCC3CN(C)C4)c1)C2=O [Example 1436, 1-(3-chlorophenyl)-N-ethyl-6-(3-(3-methyl-3,8-diazabicyclo[3.2.1]octan-8-yl)phenyl)-7-oxo-4,5,6,7-tetrahydro-1H-pyrazolo[3,4-c]pyridine-3-carboxamide] | 5.00 to 5.52 |  |  |  | > 80% | > 80% | 
CCNC(=O)c1nn(-c2cccc(Cl)c2)c2c1CCN(c1cccc(N3CCN(C)C(=O)C3)c1)C2=O [Example 1432, 1-(3-chlorophenyl)-N-ethyl-6-(3-(4-methyl-3-oxopiperazin-1-yl)phenyl)-7-oxo-4,5,6,7-tetrahydro-1H-pyrazolo[3,4-c]pyridine-3-carboxamide] | 5.52 to 6.00 |  |  |  | 20 to 80% | < 20% | 
CCNC(=O)c1nn(-c2ccc(Cl)c(C)c2)c2c1CCN(c1ccc3c(c1)C(=O)N(C)CC3)C2=O [Example 2057, 1-(4-chloro-3-methylphenyl)-N-ethyl-6-(2-methyl-1-oxo-1,2,3,4-tetrahydroisoquinolin-7-yl)-7-oxo-4,5,6,7-tetrahydro-1H-pyrazolo[3,4-c]pyridine-3-carboxamide] | 5.52 to 6.00 |  |  |  | 20 to 80% | 20 to 80% | 
CCNC(=O)c1nn(-c2cccc(C#N)c2C)c2c1CCN(c1ccc3c(c1)C(=O)N(C)CC3)C2=O [Example 2042, 1-(3-cyano-2-methylphenyl)-N-ethyl-6-(2-methyl-1-oxo-1,2,3,4-tetrahydroisoquinolin-7-yl)-7-oxo-4,5,6,7-tetrahydro-1H-pyrazolo[3,4-c]pyridine-3-carboxamide] | 4.40 to 5.00 |  |  |  | > 80% | 20 to 80% | 

The next lines start with the values.

pIC50 [1] | pIC50 (FXa) | bioavailability [2] | half-life [2] | activity at 40 µM (FXa) | activity at 40 µM (Thrombin) | pIC50 (Thrombin) | Structure (SMILES)
6.52 to 7.00 | 5.52 to 6.00 | 36% | 328 min |  |  |  | CN1CCc2ccc(N3CCc4c(C(=O)N[C@H](CO)c5ccccc5)nn(-c5cccc(Cl)c5)c4C3=O)cc2C1 [Example 1024, (S)-1-(3-Chlorophenyl)-N-(2-hydroxy-1-phenylethyl)-6-(2-methyl-1,2,3,4-tetrahydroisoquinolin-7-yl)-7-oxo-4,5,6,7-tetrahydro-1H-pyrazolo[3,4-c]pyridine-3-carboxamide]
7.00 to 8.00 | < 4.40 | 55% | 277 min |  |  |  | O=C(NCC1CC1)c1nn(-c2cccc(Cl)c2)c2c1CCN(c1ccc3c(c1)CN(CCO)CC3)C2=O [Example 1055, 1-(3-Chlorophenyl)-N-(cyclopropylmethyl)-6-(2-(2-hydroxyethyl)-1,2,3,4-tetrahydroisoquinolin-7-yl)-7]
4.40 to 5.00 |  |  |  | > 80% | > 80% |  | CN1CCc2ccc(N3CCc4cnn(-c5cc(Cl)cc(CN)c5)c4C3=O)cc2C1=O [Example 2047, 7-(1-(3-(aminomethyl)-5-chlorophenyl)-7-oxo-1,4,5,7-tetrahydro-6H-pyrazolo[3,4-c]pyridin-6-yl)-2-methyl-3,4-dihydroisoquinolin-1(2H)-one]
4.40 to 5.00 |  |  |  | > 80% | 20 to 80% |  | CCNC(=O)c1nn(-c2cccc(Cl)c2)c2c1CCN(c1cccc(N3C(=O)C[C@H]4CCC[C@H]43)c1)C2=O [Example 1413, 1-(3-chlorophenyl)-N-ethyl-7-oxo-6-(3-((3aR,6aR)-2-oxohexahydrocyclopenta[b]pyrrol-1(2H)-yl)phenyl)-4,5,6,7-tetrahydro-1H-pyrazolo[3,4-c]pyridine-3-carboxamide]
4.40 to 5.00 |  |  |  | 20 to 80% | 20 to 80% |  | CCNC(=O)c1nn(-c2cccc(Cl)c2)c2c1CCN(c1cccc(N3CCOCC3=O)c1)C2=O [Example 1426, 1-(3-chlorophenyl)-N-ethyl-7-oxo-6-(3-(3-oxomorpholino)phenyl)-4,5,6,7-tetrahydro-1H-pyrazolo[3,4-c]pyridine-3-carboxamide]
6.52 to 7.00 | 4.40 to 5.00 |  |  |  |  | < 4.00 | CC(C)N1CCc2ccc(N3CCc4c(C(=O)NCC5CC5)nn(-c5cccc(Cl)c5)c4C3=O)cc2C1 [Example 1035, 1-(3-chlorophenyl)-N-(cyclopropylmethyl)-6-(2-isopropyl-1,2,3,4-tetrahydroisoquinolin-7-yl)-7-oxo-4,5,6,7-tetrahydro-1H-pyrazolo[3,4-c]pyridine-3-carboxamide]
5.00 to 5.52 |  |  |  | > 80% | > 80% |  | CCNC(=O)c1nn(-c2cccc(Cl)c2)c2c1CCN(c1cccc(N3CCN(C(C)C)C3=O)c1)C2=O [Example 1409, 1-(3-chlorophenyl)-N-ethyl-6-(3-(3-isopropyl-2-oxoimidazolidin-1-yl)phenyl)-7-oxo-4,5,6,7-tetrahydro-1H-pyrazolo[3,4-c]pyridine-3-carboxamide]
7.00 to 8.00 |  |  |  | 20 to 80% | 20 to 80% |  | CN1CCc2ccc(N3CCc4c(C(=O)N[C@@H](CO)C5CC5)nn(-c5cccc(Cl)c5F)c4C3=O)cc2C1=O [Example 2043, (R)-1-(3-chloro-2-fluorophenyl)-N-(1-cyclopropyl-2-hydroxyethyl)-6-(2-methyl-1-oxo-1,2,3,4-tetrahydroisoquinolin-7-yl)-7-oxo-4,5,6,7-tetrahydro-1H-pyrazolo[3,4-c]pyridine-3-carboxamide]
